Data from patent US11944623B2, “Modulators of Kv3 channels to treat pain” (Autifony Therapeutics Limited, priority 2015, dated 2024).

Experiments:
[1] = system: rat model of persistent inflammatory pain; assay: Persistent inflammatory pain model (intraplantar FCA): paw withdrawal to mechanical pressure and cold (10° C.), general observations; assay type: in vivo; settings: 30 mg/kg oral
Description: (§1) The efficacy of Compounds 1, 2, 3 and 4 was investigated using rat models of neuropathic and/or persistent inflammatory pain.
(§2) Subjects comprised male, Wistar Hanover rats, 6 animals per group (225±2 g for Compound 1 studies and Compound 2 studies; 214±1 g for Compound 3 studies; 236±1 g for Compound 4 studies).
(§3) Vehicle (12% Captisol®; 0.5% w/v HPMC and 0.1% w/v Tween-80; 5 ml/kg via the intraperitoneal route) was prepared using autoclaved deionized water not more than one week prior to use.
(§4) The details of the studies performed are outlined in Table 1.
(§5) The control for the neuropathic pain model was lamotrigine, administered at 30 mg/kg via oral delivery. The control for the inflammatory pain model was diclofenac, administered at 30 mg/kg via oral delivery. Statistical analysis was performed using one-way ANOVA, and comparisons were performed with time-matched vehicle group using Tukey's HSD test wherein * p<0.05, ** p<0.01, *** p<0.001.
(§6) Treatment groups were randomised and blinded. Groups of 6 rats were used.
Mechanical hyperalgesia was examined in a model of persistent inflammatory pain. The hyperalgesia was induced by an intraplantar injection (25 μl) of Freund's Complete Adjuvant (FCA) into the left hind paw.
To assess the effect of the test compound, paw withdrawal thresholds or latencies were measured on both the ipsilateral (FCA-injected) and contralateral (non-injected) paws, prior to (naïve) and 24 hours following FCA injection (predose), and then at 1, 3, 6 and 24 hours after drug or vehicle administration.
(§7) Mechanical hyperalgesia was examined in a model of neuropathic pain by measuring paw withdrawal thresholds (PWT) to increasing mechanical force applied to the dorsal surface of the rat paw using an Analgesymeter (Ugo-Basile, Milan) equipped with a wedge-shaped probe (area 1.75 mm^2). Cut-off was set at 250 g and the end-point was taken as withdrawal of the hind paw. Both ipsilateral and contralateral paw withdrawal readings were taken.
(§8) Cold sensitivity was assessed using a commercially available cold-plate (Ugo Basile, Milan). The cold plate was allowed to stabilize for 5 minutes at the set temperature prior to testing. Paw withdrawal latencies (PWL) were determined with the cold-plate set at 10° C. The animals were lightly restrained and each hind paw in turn placed onto the surface of the cold-plate. The end point was taken as the withdrawal of the paw and recorded as the withdrawal latency for the ipsilateral and the contralateral paw. A maximum cut-off of 30 seconds was used for each paw.
(§9) In addition to behavioural pain readings, each rat was observed throughout the study for changes in general behaviour.
(§10) Data were expressed as withdrawal threshold (g) or withdrawal latencies (s) and percentage reversals calculated according to the following formula: […]
(§11) Statistical analysis was carried out on withdrawal threshold readings using ANOVA with repeated measures followed by Tukey's HSD test. The level for statistical significance was set as p<0.05.

[2] = system: rat model of neuropathic pain; assay: Neuropathic pain model (partial ligation of the sciatic nerve): paw withdrawal to mechanical pressure and cold (10° C.), general observations; assay type: in vivo
Description: as §1, §2, §3, §4, §5, §6
Neuropathic pain was induced by partial ligation of the sciatic nerve. Briefly, the rats were anaesthetised (isoflurane/O2 inhalation), the left sciatic nerve exposed at mid-thigh level through a small incision and ⅓ to ½ of the nerve thickness tightly ligated within a 7.0 silk suture. The wound was closed with surgical glue. Animals were allowed to recover and tested 12-15 days following surgery.
Withdrawal thresholds or latencies were measured on both the ipsilateral (ligated) and contralateral (non-ligated) paws, prior to (predose) and then up to 24 h following drug or vehicle administration.
Pre-dose behavioural measurements were obtained by measuring paw withdrawals 14 days following nerve ligation; before the initiation of drug treatment. Following treatment, further readings were taken at 1, 3, 6 and 24 hour after administration.
as §7, §8, §9, §10, §11

[3] = positive control in Compound 2 study, 3 hours post-dose
[4] = positive control in Compound 3 study, 3 hours post-dose
[5] = positive control in Compound 4 study
[6] = positive control in Compound 2 Study 1, 30 mg/kg oral, 3 hours post-dose
[7] = positive control in Compound 3 neuropathic study, 30 mg/kg oral, 3 hours post-dose
[8] = positive control in Study 2 (Compounds 1 and 2), 30 mg/kg oral, 3 hours post-dose

Row | SMILES | peak reversal, mechanical ([1]; positive control in Compound 1 study, 1 hour post-dose) [%] | peak reversal, cold ([1]; positive control in Compound 1 study, 3 hours post-dose) [%] | peak reversal, cold [1, 3] [%] | peak reversal, mechanical [1, 3] [%] | peak reversal, cold [1, 4] [%] | peak reversal, mechanical [1, 4] [%] | reversal, cold [1, 5] [%] | reversal, mechanical [1, 5] [%] | peak reversal, cold ([2]; positive control in Compound 1 Study 1, 30 mg/kg oral, 1 hour post-dose) [%] | peak reversal, mechanical ([2]; positive control in Compound 1 Study 1, 30 mg/kg oral, 3 hours post-dose) [%] | peak reversal, cold [2, 6] [%] | peak reversal, mechanical [2, 6] [%] | peak reversal, cold [2, 7] [%] | peak reversal, mechanical [2, 7] [%] | peak reversal, cold [2, 8] [%] | peak reversal, mechanical [2, 8] [%]
1 | O=C(O)Cc1ccccc1Nc1c(Cl)cccc1Cl [diclofenac, reference compound] | 64 | 79 | 69 | 66 | 45 | 60 | 50 | 49 | – | – | – | – | – | – | – | –
2 | Nc1nnc(-c2cccc(Cl)c2Cl)c(N)n1 [lamotrigine, reference compound] | – | – | – | – | – | – | – | – | 58 | 65 | 58 | 54 | 74 | 61 | 67 | 67
